# The supplement of paper PMC10307832
# Key:
# Assay in all cases: relative viability (nuclei count vs DMSO), 5 days (fraction); higher = more cells survive
# PC-3 [JPC-3] = system: PC-3 [JPC-3]
# In short: (§1)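 Relative viability equals treated-well nuclei counts divided by vehicle-well nuclei counts. Counts came from 4× images of lung cancer cell lines grown in 1536-well plates for 5 days after pin-tool dosing on the day after seeding. Dosing used one drug alone or a fixed anchor-drug dose plus five library-drug doses (not always all listed) in √10 steps, and values are medians of duplicate plates.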
# CAL-12T = system: CAL-12T
# In short: as §1
# NCI-H2023 = system: NCI-H2023
# In short: as §1
# NCI-H661 = system: NCI-H661
# In short: as §1
# NCI-H1944 = system: NCI-H1944
# In short: as §1
# NCI-H650 = system: NCI-H650
# In short: as §1
# LCLC-97TM1 = system: LCLC-97TM1
# In short: as §1
# NCI-H1650 = system: NCI-H1650
# In short: as §1
# NCI-H460 = system: NCI-H460
# In short: as §1
# A-427 = system: A-427
# In short: as §1
# ABC-1 = system: ABC-1
# In short: as §1
# NCI-H727 = system: NCI-H727
# In short: as §1
# LC-2-ad = system: LC-2-ad
# In short: as §1
# H3255 = system: H3255
# In short: as §1
# NCI-H520 = system: NCI-H520
# In short: as §1
# NCI-H1651 = system: NCI-H1651
# In short: as §1
# NCI-H1915 = system: NCI-H1915
# In short: as §1
# 201T = system: 201T
# In short: as §1
# BEN = system: BEN
# In short: as §1
# NCI-H596 = system: NCI-H596
# In short: as §1
# NCI-H441 = system: NCI-H441
# In short: as §1
smiles,measurement,setting,value
CC(=O)O[C@@]12CO[C@@H]1C[C@H](O)[C@@]1(C)C(=O)[C@H](O)C3=C(C)[C@@H](OC(=O)[C@H](O)[C@@H](NC(=O)OC(C)(C)C)c4ccccc4)C[C@@](O)([C@@H](OC(=O)c4ccccc4)[C@H]21)C3(C)C [Docetaxel] + Cc1cc(Nc2cc(N3CCN(C)CC3)nc(Sc3ccc(NC(=O)C4CC4)cc3)n2)n[nH]1 [Tozasertib] (partner 0.1 µM),relative viability,PC-3 [JPC-3]; first compound 0.0002 µM,0.851
same,relative viability,PC-3 [JPC-3]; first compound 0.000632 µM,0.78
same,relative viability,PC-3 [JPC-3]; first compound 0.002 µM,0.426
same,relative viability,PC-3 [JPC-3]; first compound 0.006325 µM,0.209
same,relative viability,PC-3 [JPC-3]; first compound 0.02 µM,0.118
same,relative viability,CAL-12T; first compound 0.0002 µM,0.319
same,relative viability,CAL-12T; first compound 0.000632 µM,0.32
same,relative viability,CAL-12T; first compound 0.002 µM,0.227
same,relative viability,CAL-12T; first compound 0.006325 µM,0.251
same,relative viability,CAL-12T; first compound 0.02 µM,0.142
same,relative viability,NCI-H2023; first compound 0.0002 µM,0.317
same,relative viability,NCI-H2023; first compound 0.000632 µM,0.288
same,relative viability,NCI-H2023; first compound 0.002 µM,0.11
same,relative viability,NCI-H2023; first compound 0.006325 µM,0.158
same,relative viability,NCI-H2023; first compound 0.02 µM,0.0697
same,relative viability,NCI-H661; first compound 0.0002 µM,0.367
same,relative viability,NCI-H661; first compound 0.000632 µM,0.387
same,relative viability,NCI-H661; first compound 0.002 µM,0.432
same,relative viability,NCI-H661; first compound 0.006325 µM,0.352
same,relative viability,NCI-H661; first compound 0.02 µM,0.4
same,relative viability,NCI-H1944; first compound 0.0002 µM,0.23
same,relative viability,NCI-H1944; first compound 0.000632 µM,0.223
same,relative viability,NCI-H1944; first compound 0.002 µM,0.235
same,relative viability,NCI-H1944; first compound 0.006325 µM,0.194
same,relative viability,NCI-H1944; first compound 0.02 µM,0.15
same,relative viability,NCI-H650; first compound 0.0002 µM,0.666
same,relative viability,NCI-H650; first compound 0.000632 µM,0.381
same,relative viability,NCI-H650; first compound 0.002 µM,0.25
same,relative viability,NCI-H650; first compound 0.006325 µM,0.25
same,relative viability,NCI-H650; first compound 0.02 µM,0.182
same,relative viability,LCLC-97TM1; first compound 0.000632 µM,0.209
same,relative viability,LCLC-97TM1; first compound 0.002 µM,0.191
same,relative viability,LCLC-97TM1; first compound 0.006325 µM,0.122
same,relative viability,LCLC-97TM1; first compound 0.02 µM,0.13
same,relative viability,NCI-H1650; first compound 0.0002 µM,0.386
same,relative viability,NCI-H1650; first compound 0.000632 µM,0.328
same,relative viability,NCI-H1650; first compound 0.006325 µM,0.306
same,relative viability,NCI-H1650; first compound 0.02 µM,0.168
same,relative viability,NCI-H460; first compound 0.0002 µM,0.358
same,relative viability,NCI-H460; first compound 0.000632 µM,0.368
same,relative viability,NCI-H460; first compound 0.002 µM,0.0923
same,relative viability,NCI-H460; first compound 0.006325 µM,0.0604
same,relative viability,NCI-H460; first compound 0.02 µM,0.0207
same,relative viability,A-427; first compound 0.0002 µM,0.176
same,relative viability,A-427; first compound 0.000632 µM,0.237
same,relative viability,A-427; first compound 0.002 µM,0.193
same,relative viability,A-427; first compound 0.006325 µM,0.162
same,relative viability,A-427; first compound 0.02 µM,0.132
same,relative viability,ABC-1; first compound 0.0002 µM,0.15
same,relative viability,ABC-1; first compound 0.000632 µM,0.191
same,relative viability,ABC-1; first compound 0.002 µM,0.195
same,relative viability,ABC-1; first compound 0.006325 µM,0.159
same,relative viability,ABC-1; first compound 0.02 µM,0.218
same,relative viability,NCI-H727; first compound 0.0002 µM,0.781
same,relative viability,NCI-H727; first compound 0.000632 µM,0.614
same,relative viability,NCI-H727; first compound 0.002 µM,0.611
same,relative viability,NCI-H727; first compound 0.006325 µM,0.518
same,relative viability,NCI-H727; first compound 0.02 µM,0.398
same,relative viability,LC-2-ad; first compound 0.0002 µM,0.487
same,relative viability,LC-2-ad; first compound 0.000632 µM,0.395
same,relative viability,LC-2-ad; first compound 0.002 µM,0.302
same,relative viability,LC-2-ad; first compound 0.006325 µM,0.37
same,relative viability,H3255; first compound 0.0002 µM,0.83
same,relative viability,H3255; first compound 0.000632 µM,0.507
same,relative viability,H3255; first compound 0.002 µM,0.241
same,relative viability,H3255; first compound 0.006325 µM,0.264
same,relative viability,H3255; first compound 0.02 µM,0.236
same,relative viability,NCI-H520; first compound 0.0002 µM,0.418
same,relative viability,NCI-H520; first compound 0.000632 µM,0.468
same,relative viability,NCI-H520; first compound 0.002 µM,0.445
same,relative viability,NCI-H520; first compound 0.006325 µM,0.376
same,relative viability,NCI-H520; first compound 0.02 µM,0.317
same,relative viability,NCI-H1651; first compound 0.0002 µM,0.716
same,relative viability,NCI-H1651; first compound 0.000632 µM,0.717
same,relative viability,NCI-H1651; first compound 0.002 µM,0.187
same,relative viability,NCI-H1651; first compound 0.006325 µM,0.189
same,relative viability,NCI-H1915; first compound 0.0002 µM,0.426
same,relative viability,NCI-H1915; first compound 0.000632 µM,0.322
same,relative viability,NCI-H1915; first compound 0.002 µM,0.247
same,relative viability,NCI-H1915; first compound 0.006325 µM,0.201
same,relative viability,NCI-H1915; first compound 0.02 µM,0.142
same,relative viability,201T; first compound 0.0002 µM,0.937
same,relative viability,201T; first compound 0.000632 µM,0.751
same,relative viability,201T; first compound 0.002 µM,0.581
same,relative viability,201T; first compound 0.006325 µM,0.453
same,relative viability,201T; first compound 0.02 µM,0.325
same,relative viability,BEN; first compound 0.0002 µM,0.499
same,relative viability,BEN; first compound 0.000632 µM,0.503
same,relative viability,BEN; first compound 0.002 µM,0.473
same,relative viability,BEN; first compound 0.006325 µM,0.418
same,relative viability,BEN; first compound 0.02 µM,0.426
same,relative viability,NCI-H596; first compound 0.0002 µM,0.838
same,relative viability,NCI-H596; first compound 0.000632 µM,0.754
same,relative viability,NCI-H596; first compound 0.002 µM,0.365
same,relative viability,NCI-H596; first compound 0.006325 µM,0.361
same,relative viability,NCI-H596; first compound 0.02 µM,0.25
same,relative viability,NCI-H441; first compound 0.0002 µM,0.634
same,relative viability,NCI-H441; first compound 0.000632 µM,0.489
same,relative viability,NCI-H441; first compound 0.002 µM,0.293
same,relative viability,NCI-H441; first compound 0.006325 µM,0.306
same,relative viability,NCI-H441; first compound 0.02 µM,0.248
